Test results reported in US11650214B2, “Proteins of the WNT signaling pathway and uses thereof in the diagnostic and treatment of hypopigmentation disorders” (INSERM (INSTITUT NATIONAL DE LA SANTÉ ET DE LA RECHERCHE …, priority 2014, dated 2023).

What was measured:
Assay type in all cases: cell-based, human
[1] = tested on: WNT pathway in lesional skin from vitiligo patients; test: Ex vivo culture of lesional vitiligo skin biopsies with WNT pathway activators, RT-qPCR; conditions: 14 days, SKL2001 40 μM; for mRNA level of early melanoblast marker Brn2 / mRNA level of early melanoblast marker PAX3 / relative mRNA expression of LEF / relative mRNA expression of WNT family: CHIR99021 3 μM, LiCl 20 μM; for relative mRNA expression of LEF / relative mRNA expression of WNT family: stimulation every other day, n=9
Description: Vitiligo patients (n=9) were biopsied in lesional skin area. The biopsies were stimulated in ex vivo culture during 14 days with GSK3β inhibitor: CHIR99021 (3 μM) or LiCl (20 μM) or with WNT agonist: SKL2001 (40 μM) every other day. mRNA was extracted and a RT-qPCR was performed to quantify the relative expression of LEF (A) and the pre-melanocytes markers PAX3 (B), Brn2 (C) MITF (D) and DCT (E).
Vitiligo patients (n=9) were biopsied in lesional skin area. The biopsies were stimulated in ex vivo culture during 14 days with GSK3β inhibitor: CHIR99021 (3 μM) or LiCl (20 μM) or with WNT agonist: SKL2001 (40 μM) every other day. mRNA was extracted and a RT-qPCR was performed to quantify the relative expression of WNT family
For vitiligo skin biopsies, after verification of the absence of melanocytes with Wood's lamp, two or three 6 mm biopsies composed of dermis plus epidermis were taken into lesional skin from vitiligo patients (n=9). The biopsies are rapidly put on transwell chamber of 0.4 μm (Becton Dickinson) and kept on semi liquid culture conditions in “Skin long term culture medium” (Biopredic). The skin was maintained at 37° C. in a wet 5% CO2 atmosphere.
The culture medium supplemented with Forskolin (Sigma Aldrich), LiCl (Sigma Aldrich), CHIR99021 (Calbiochem) or SKL2001 (Calbiochem) was changed […] during 14 days.
mRNA from melanocytes and keratinocytes was extracted with RNeasy kit (Qiagen). The biopsies are cut and disrupted with tissue ruptor (Qiagen) and the mRNA was extracted with RNeasy kit (Qiagen). cDNA were synthesized from 300 ng to 1 μg of mRNA with the Reverse Transcription System (Promega). Relative quantification of gene expression was measured by real time qPCR with Sybr green reagent (Life technology) on Step one system.
In order to induce the differentiation of melanocyte stem cells, they pharmacologically activated the WNT pathway in vitiligo skin cultured ex vivo as shown previously. They used two methods to activate the WNT pathway: a WNT agonist (SKL2001) and two GSK3β inhibitors: lithium chloride (LiCl) and a commercial specific inhibitor (CHIR99021). They biopsied 9 vitiligo subjects (6 mm punch) on diverse body locations ([…], 2 on trunk, 2 on leg, 1 on arm and 1 on axilla) and treated the ex vivo culture model during 14 days with a systemic stimulation every other day with the WNT activators.
They evaluated the activation of WNT pathway by the mRNA level of WNTs (TCF/LEF1 and the melanogenesis pathway by the mRNA level of MITF, DCT, PAX3 and BRn2) within the skin. Treatments with LiCl, CHIR99021 and SKL2001 induce an increase of all WNT and LEF after 14 days of stimulation (FIG. 6A and FIG. 11).

[2] = tested on: whole skin in ex vivo culture; test: Oxidative stress (H2O2) in whole skin in ex vivo culture, qPCR of LEF1 and WNT family; conditions: whole skin biopsies ex vivo, 24 hours, 25 to 100 μM H2O2
Description: (§1) NHM (A) and NHK (B) and whole skin in ex vivo culture (C) were stimulated 24 hours with 25 to 100 μM of H2O2. After mRNA extraction, a reverse transcription was performed and the relative gene expression of LEF1 was analyzed with qPCR.
(§2) (A) NHM, (B) NHK and (C) whole skin in ex vivo culture were stimulated 24 hours with 25 to 100 μM of H2O2. After mRNA extraction, a reverse transcription was performed and the relative gene expression of WNT family was analyzed with qPCR.
Skin from abdominoplasty surgery was used to the development of the ex vivo skin culture model. The subcutaneous fat was removed and biopsies of 6 mm were done in the skin composed of dermis and epidermis.
(§3) mRNA from melanocytes and keratinocytes was extracted with RNeasy kit (Qiagen). […] Relative quantification of gene expression was measured by real time qPCR with Sybr green reagent (Life technology) on Step one system.
(§4) Since the WNT pathway, implicated in melanocytes differentiation, seems to be affected in vitiligo skin, inventors tried to determine the element—known to be involved in vitiligo—responsible for this dysregulation. […] They induced an oxidative stress with H2O2 in melanocytes and keratinocytes and analyzed the expression of LEF and WNT family. […]

[3] = tested on: NHM (melanocytes); test: Oxidative stress (H2O2) in NHM, qPCR of LEF1 and WNT family; conditions: 24 hours
Description: as §1, §2
(§5) NHMs and NHKs are obtained from the foreskin of phototype IV children as described previously. Briefly, epidermal cells are obtained by overnight digestion of the skin in a dispase solution (Roche) at 4° C. followed by the digestion of the epidermis in a trypsin/EDTA solution during 20 minutes at 37° C. […]
as §3, §4

[4] = tested on: NHK (keratinocytes); test: Oxidative stress (H2O2) in NHK, qPCR of LEF1 and WNT family; conditions: 24 hours
Description: as §1, §2, §5, §3, §4

[5] = 25 to 100 μM H2O2, majority of WNT

Compound	mRNA level of early melanoblast marker Brn2 [1]	mRNA level of early melanoblast marker PAX3 [1]	relative mRNA expression of LEF [1]	relative mRNA expression of WNT family [1]	expression of LEF [2]	expression of WNT family ([2]; most of the WNT family)	expression of LEF ([3]; 25 to 100 μM H2O2)	expression of WNT family [3, 5]	expression of LEF ([4]; 25 to 100 μM H2O2)	expression of WNT family [4, 5]	mRNA level of MITF [1]
Cc1c[nH]c(-c2cnc(NCCNc3ccc(C#N)cn3)nc2-c2ccc(Cl)cc2Cl)n1 [CHIR99021]	up-regulated	up-regulated	increase	increase							
OO [H2O2]					decrease expression	decrease expression	decreased	decreased	decreased	decreased	
O=C(NCCCn1ccnc1)c1cc(-c2ccco2)on1 [SKL2001]	up-regulated	up-regulated	increase	increase							increased
